This note sets out measurements from US10647680B2, “Urea compound, preparation method therefor and medical use thereof” (Ancureall Pharmaceutical (Shanghai) Co., Ltd., priority 2016, dated 2020).

For one assay, the system named is HL-60 (FLT3 wild type). Description: In vitro growth inhibition (GI50), HL-60. Format: cell-based. The conditions noted are these: Homo sapiens, Cell lines of leukemia, read-out: GI 50 HL60 FLT3 (WT). Summed up: (§1)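 Cells in RPMI1640 with 10% FBS, seeded at 5–10×10^4 cells/mL, exposed next day to compound at 5,000 nM down to 0.01 nM (2- or 10-fold dilutions, ≤1% solvent) for 3–5 days at 37 °C. CCK8 absorbance at 450 nm, growth rate relative to pre-treatment and solvent controls, GI50 from concentration–growth curve.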

Assay [1] deals with Kasumi-1 (c-Kit N822K mutant type). Description: In vitro growth inhibition (GI50), Kasumi-1. The conditions noted are these: Homo sapiens, Cell lines of leukemia, read-out: GI 50 Kasumi-1 Kit (N822K). Format: cell-based. Summed up: as §1
Assay [2] relates to OCI-AML3 (NPMc+ mutant type). The assay is described as follows: In vitro growth inhibition (GI50), OCI-AML3. The class given is cell-based. Particulars: Homo sapiens, OCI-AML-3; Cell lines of leukemia; read-out: GI 50 OCI- AML3 NPMc+.
The next assay has as its system U937 (FLT3 wild-type). Description: In vitro growth inhibition (GI50), U937. The class given is cell-based. The conditions noted are these: Homo sapiens, U-937; Cell lines of leukemia; read-out: GI 50 U937 FLT 3(WT).
In a further assay the test system is RS4; 11 (FLT3 wild type). The assay is described as follows: In vitro growth inhibition (GI50), RS4; 11. Format: cell-based, human. Particulars: Homo sapiens, RS4-11; Cell lines of leukemia; read-out: GI 50 RS4: 11 FLT3 (WT).
Assay [3] deals with KG-1 (expressing FGFR1OP2-FGFR1 fusion protein). Description: In vitro growth inhibition (GI50), KG-1. The class given is cell-based. Particulars: Homo sapiens; Cell lines of leukemia; read-out: GI 50 KG-1 FGFR1OP 2-FGFR1.
For assay [4], the system named is K562 (FLT3 negative expression, positive expression of BCR-ABL fusion protein). The assay is described as follows: In vitro growth inhibition (GI50), K562. Particulars: Homo sapiens, Cell lines of leukemia, read-out: GI 50 K562 BCR-ABL. The class given is cell-based.
Assay [5] relates to MOLM-13 (FLT3 ITD+/− mutant type). The assay is described as follows: In vitro growth inhibition (GI50), MOLM-13. Format: cell-based, human. Particulars: Homo sapiens, MOLM-13; Cell lines of leukemia; read-out: GI 50 MOLM-13 FLT3 (ITD+/−).
Assay [6] concerns RAMOS (positive expression of Brutons tyrosine protein kinase). The assay is described as follows: In vitro growth inhibition (GI50), RAMOS. Format: cell-based. The conditions noted are these: Homo sapiens, Cell lines of leukemia, read-out: GI 50 Ramos BTK.
The subject of assay [7] is MV4-11 (FLT3 ITD+/+ mutant type). Description: In vitro growth inhibition (GI50), MV4-11. The class given is cell-based, human. Particulars: Homo sapiens, MV4-11; Cell lines of leukemia; read-out: GI 50 MV4-11 FLT3 (ITD +/+).

Where only a bound is given, the exact number is not on record here.

As for `CC(C)(C)c1cc(NC(=O)Nc2ccc(-n3cnc4cc(OC(F)(F)F)ccc43)cc2)no1` [Compound 21, 1-(5-tert-butyl-isoxazol-3-yl)-3-[4-(5-trifluoromethoxy-benzimidazol-1-yl)-phenyl]-urea], the GI50 (in the assay on HL-60 (FLT3 wild type); in [1]; in assay [2]; in the assay with U937 (FLT3 wild-type); in the assay on RS4; 11 (FLT3 wild type); in [3]) was greater than 1000 nM each time. The GI50 in [4] was greater than 1000 nM; in assay [5] it was 0.1 to 1 nM; in assay [6], greater than 1000 nM; in assay [7], 0.1 to 1 nM.
`CC(C)(C)c1cc(NC(=O)Nc2ccc(-n3ccc4ccccc43)cc2)no1` [Compound 44, 1-(5-tert-butyl-isoxazol-3-yl)-3-(4-indol-1-yl-phenyl)-urea]: the GI50 (with HL-60 (FLT3 wild type); in assay [1]; in [2]; with U937 (FLT3 wild-type); with RS4; 11 (FLT3 wild type); in assay [3]) was greater than 1000 nM in each case. The GI50 in assay [4], in assay [5], in assay [6] and in assay [7] was greater than 1000 nM in each case.
Turning to `Cc1cc2ncn(-c3ccc(NC(=O)Nc4cc(C(C)(C)C)on4)cc3)c2cc1C` [Compound 32, 1-(5-tert-butyl-isoxazol-3-yl)-3-[4-(5,6-dimethyl-benzimidazol-1-yl)-phenyl]-urea], the GI50 (in the assay with HL-60 (FLT3 wild type); in assay [1]; in assay [2]; in the assay on U937 (FLT3 wild-type); in the assay with RS4; 11 (FLT3 wild type); in [3]) was greater than 1000 nM throughout. Moreover, the GI50 in [4] was greater than 1000 nM; in assay [5] it was 1 to 10 nM; in [6] it was greater than 1000 nM; in assay [7] it was 1 to 10 nM.
Regarding `CC(C)(C)c1nnc(NC(=O)Nc2ccc(-n3cnc4ccccc43)cc2)s1` [Compound 63, 1-(4-benzimidazol-1-yl-phenyl)-3-(5-tert-butyl-[1,3,4]thiadiazole-2-yl)-urea], the GI50 (in the assay with HL-60 (FLT3 wild type); in [1]; in assay [2]; with U937 (FLT3 wild-type); in the assay on RS4; 11 (FLT3 wild type); in [3]) was greater than 1000 nM in each case. The GI50 was greater than 1000 nM in assay [4], 1 to 10 nM in [5], greater than 1000 nM in assay [6] and 1 to 10 nM in assay [7].
`CC(C)(C)c1cc(N)n(C(=O)Nc2ccc(-n3cnc4cc(OCC5CCCO5)ccc43)cc2)n1` (stereo not drawn) [Compound 123, 5-amino-3-tert-butyl-pyrazol-1-carboxylic acid {4-[5-(tetrahydro-furan-2-ylmethoxy)-benzimidazol-1-yl]-phenyl}-amide]: the GI50 (in the assay on HL-60 (FLT3 wild type); in assay [1]; in assay [2]; in the assay on U937 (FLT3 wild-type); with RS4; 11 (FLT3 wild type); in [3]) was greater than 1000 nM throughout. For the same molecule, the GI50 in assay [4] is greater than 1000 nM; in assay [5], 1 to 10 nM; in assay [6] it was greater than 1000 nM; in assay [7], 1 to 10 nM.
As for `CN(C)c1ncnc2ncn(-c3ccc(NC(=O)Nc4cc(C(C)(C)C)on4)cc3)c12` [Compound 59, 1-(5-tert-butyl-isoxazol-3-yl)-3-[4-(6-dimethylamino-purin-7-yl)-phenyl]-urea], the GI50 is greater than 1000 nM with HL-60 (FLT3 wild type); greater than 1000 nM in assay [1]; greater than 1000 nM in [2]; greater than 1000 nM in the assay with U937 (FLT3 wild-type); 100 to 1000 nM in the assay on RS4; 11 (FLT3 wild type); 100 to 1000 nM in assay [3]. The GI50 in assay [4] was 100 to 1000 nM; in assay [5], 1 to 10 nM; in assay [6] it was greater than 1000 nM; in assay [7] it was 1 to 10 nM.
As to `COc1ccc(-n2nc(C(C)(C)C)cc2NC(=O)Nc2ccc(-n3cnc4ccccc43)cc2)cc1` [Compound 106, 1-(4-benzimidazol-1-yl-phenyl)-3-[5-tert-butyl-2-(4-methoxyl-phenyl)-2H-pyrazol-3-yl]-urea], the GI50 (in the assay with HL-60 (FLT3 wild type); in assay [1]; in assay [2]; with U937 (FLT3 wild-type); with RS4; 11 (FLT3 wild type); in [3]) was greater than 1000 nM in each case. Further, the GI50 in assay [4] is greater than 1000 nM; in assay [5], 10 to 100 nM; in assay [6], greater than 1000 nM; in assay [7], 10 to 100 nM.
For `COc1cc2ncn(-c3ccc(NC(=O)Nc4cc(C(C)(C)C)n[nH]4)cc3)c2cc1OC` [Compound 99, 1-(5-tert-butyl-2H-pyrazol-3-yl)-3-[4-(5,6-dimethoxyl-benzimidazol-1-yl)-phenyl]-urea], the GI50 (in the assay with HL-60 (FLT3 wild type); in assay [1]; in assay [2]; in the assay on U937 (FLT3 wild-type); in the assay on RS4; 11 (FLT3 wild type); in assay [3]) was greater than 1000 nM throughout. The GI50 in [4] is greater than 1000 nM; in assay [5], 0.1 to 1 nM; in assay [6] it was greater than 1000 nM; in [7], 0.1 to 1 nM.
`COCC(O)COc1ccc2c(c1)ncn2-c1ccc(NC(=O)Nc2cc(C(C)(C)C)n[nH]2)cc1` (stereo not drawn) [Compound 80, 1-(5-tert-butyl-2H-pyrazol-3-yl)-3-{4-[5-(2-hydroxy-3-methoxyl-propoxyl)-benzimidazol-1-yl]-phenyl}-urea]: the GI50 (in the assay with HL-60 (FLT3 wild type); in assay [1]; in assay [2]; with U937 (FLT3 wild-type); in the assay on RS4; 11 (FLT3 wild type); in [3]) was greater than 1000 nM throughout. In addition, the GI50 in assay [4] was greater than 1000 nM; in assay [5], 0.1 to 1 nM; in [6], greater than 1000 nM; in assay [7], 0.1 to 1 nM.
As to `Cc1ccc(-n2nc(C(C)(C)C)cc2NC(=O)Nc2ccc(-n3cnc4ccccc43)cc2)cc1` [Compound 105, 1-(4-benzimidazol-1-yl-phenyl)-3-(5-tert-butyl-2-p-tolyl-2H-pyrazol-3-yl)-urea], the GI50 (in the assay on HL-60 (FLT3 wild type); in assay [1]; in assay [2]; in the assay on U937 (FLT3 wild-type); in the assay on RS4; 11 (FLT3 wild type); in assay [3]) was greater than 1000 nM throughout. Further, the GI50 in assay [4] is greater than 1000 nM; in [5] it was 10 to 100 nM; in assay [6], greater than 1000 nM; in assay [7], 10 to 100 nM.
In the case of `CC(C)c1cc(NC(=O)Nc2ccc(-n3cnc4ccccc43)cc2)on1` [Compound 132, 1-(4-benzimidazol-1-yl-phenyl)-3-(3-isopropyl-isoxazol-5-yl)-urea], the GI50 in the assay with HL-60 (FLT3 wild type) was greater than 1000 nM; in [1] it was greater than 1000 nM; in [2], 100 to 1000 nM; with U937 (FLT3 wild-type), greater than 1000 nM; in the assay with RS4; 11 (FLT3 wild type), greater than 1000 nM; in assay [3], greater than 1000 nM. Also, the GI50 in assay [4] was greater than 1000 nM; in assay [5], 10 to 100 nM; in assay [6], greater than 1000 nM; in assay [7], 10 to 100 nM.
Take `CC(C)(C)c1cc(NC(=O)Nc2ccc(-n3cnc4ccccc43)cc2)n(-c2ccc(F)cc2)n1` [Compound 108, 1-(4-benzimidazol-1-yl-phenyl)-3-[5-tert-butyl-2-(4-fluoro-phenyl)-2H-pyrazol-3-yl]-urea]: the GI50 with HL-60 (FLT3 wild type) is greater than 1000 nM; in assay [1], greater than 1000 nM; in assay [2], 100 to 1000 nM; with U937 (FLT3 wild-type), greater than 1000 nM; in the assay on RS4; 11 (FLT3 wild type) it was 100 to 1000 nM; in assay [3] it was greater than 1000 nM. Further, the GI50 is 100 to 1000 nM in [4], 10 to 100 nM in assay [5], greater than 1000 nM in assay [6] and 10 to 100 nM in [7].
